Measured values published in US20260042762A1 (Kymera Therapeutics, Inc., priority 2018, published 2026).

Target: T1, MerTK (Homo sapiens, UniProt Q12866)
T1 construct: endogenous in cells; host or cells: Jurkat cells
T1 sequence (Q12866 21-999): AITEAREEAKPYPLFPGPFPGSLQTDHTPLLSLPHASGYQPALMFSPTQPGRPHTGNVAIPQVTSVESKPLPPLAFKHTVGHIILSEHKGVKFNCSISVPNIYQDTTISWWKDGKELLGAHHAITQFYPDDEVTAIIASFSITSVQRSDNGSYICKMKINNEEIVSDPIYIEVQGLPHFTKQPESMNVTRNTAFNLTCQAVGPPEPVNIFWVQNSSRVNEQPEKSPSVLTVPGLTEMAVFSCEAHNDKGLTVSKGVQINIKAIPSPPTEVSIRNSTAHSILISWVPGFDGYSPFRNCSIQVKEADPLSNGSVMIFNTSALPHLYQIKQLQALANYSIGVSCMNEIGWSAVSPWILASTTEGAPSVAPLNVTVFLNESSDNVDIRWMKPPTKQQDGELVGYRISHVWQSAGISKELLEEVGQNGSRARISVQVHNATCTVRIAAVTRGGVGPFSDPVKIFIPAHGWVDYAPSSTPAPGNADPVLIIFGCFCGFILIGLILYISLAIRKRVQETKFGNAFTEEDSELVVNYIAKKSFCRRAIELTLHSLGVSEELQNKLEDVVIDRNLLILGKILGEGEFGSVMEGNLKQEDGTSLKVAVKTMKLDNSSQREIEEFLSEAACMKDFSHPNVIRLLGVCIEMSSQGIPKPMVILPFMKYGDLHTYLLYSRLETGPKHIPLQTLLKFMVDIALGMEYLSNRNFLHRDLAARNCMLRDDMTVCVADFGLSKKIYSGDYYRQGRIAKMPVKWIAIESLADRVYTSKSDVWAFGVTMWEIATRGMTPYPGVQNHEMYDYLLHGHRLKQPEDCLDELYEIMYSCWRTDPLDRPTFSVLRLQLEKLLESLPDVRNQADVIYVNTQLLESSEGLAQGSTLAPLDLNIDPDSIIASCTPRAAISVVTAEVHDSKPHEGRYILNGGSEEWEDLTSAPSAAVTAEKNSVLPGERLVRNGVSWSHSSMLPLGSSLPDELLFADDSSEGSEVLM
Experiment: MerTk degradation in Jurkat cells (Western blot)
Type: cell-based
Conditions: Jurkat, 4 h, 0.001-1 μM, 4 hour-incubation at 37° C., read-out: Jurkat Max % MerTK Degradation
Summary of the method: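 MerTK degradation was read by near-infrared Western blot, normalized to actin, in BCA-quantified lysates of Jurkat cells exposed to 0.001-1 μM compound for 4 h at 37 °C.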

| SMILES | Dmax |
| --- | --- |
| Cn1c(=O)n(C2CCC(=O)NC2=O)c2ccc(C#CCOCCN3CCC(N4CCN(Cc5ccc(-c6cn([C@H]7CC[C@H](O)CC7)c7nc(NCCC(F)(F)F)ncc67)cc5)CC4)C3)cc21 (stereo partly drawn) [I-85, 3-(3-methyl-2-oxo-5-[3-[2-(3-[4-[(4-[7-[trans-4-hydroxycyclohexyl]-2-[(3,3,3-trifluoropropyl)amino]-7H-pyrrolo[2,3-d]pyrimidin-5-yl]phenyl)methyl]piperazin-1-yl]pyrrolidin-1-yl)ethoxy]prop-1-yn-1-y1]-2,3-dihydro-1H-1,3-benzodiazol-1-y1)piperidine-2,6-dione; di(formic acid)] | > 50% |
| Cn1c(=O)n([C@H]2CCC(=O)NC2=O)c2ccc(CCCOCCCN3CCN(Cc4ccc(-c5cn(C6CCCCC6)c6nc(NCCC(F)(F)F)ncc56)cc4)CC3)cc21 [I-83, 3-[5-[3-(3-[4-[(4-[7-cyclohexyl-2-[(3,3,3-trifluoropropyl)amino]-7H-pyrrolo[2,3-d]pyrimidin-5-yl]phenyl)methyl]piperazin-1-yl]propoxy)propyl]-3-methyl-2-oxo-2,3-dihydro-1H-1,3-benzodiazol-1-yl]piperidine-2,6-dione;] | > 50% |
| CCC[C@H](C)Nc1ncc2c(n1)n([C@H]1CC[C@H](O)CC1)cc2[C@H]1CC[C@H](CN2CCN(CCCOC3CCN(Cc4ccc5c(c4)n(C)c(=O)n5C4CCC(=O)NC4=O)CC3)CC2)CC1 (stereo partly drawn) [I-208, 3-[3-methyl-2-oxo-5-([4-[3-(4-[[trans-4-[2-[(2S)-pentan-2-ylamino]-7-[trans-4-hydroxycyclohexyl]pyrrolo[2,3-d]pyrimidin-5-yl]cyclohexyl]methyl]piperazin-1-yl)propoxy]piperidin-1-yl]methyl)-1,3-benzodiazol-1-yl]piperidine-2,6-dione] | > 50% |
| CN1CCN(Cc2ccc(-c3ccc(CO[C@H]4CCC[C@@H]4NC(=O)c4cc(-c5cnn(CCOCCCc6ccc7c(c6)n(C)c(=O)n7C6CCC(=O)NC6=O)c5)cnc4N)cc3)cc2)CC1 (stereo partly drawn) [I-217, 2-Amino-5-[1-(2-[3-[1-(2,6-dioxopiperidin-3-yl)-3-methyl-2-oxo-1,3-benzodiazol-5-yl]propoxy]ethyl)pyrazol-4-yl]-N-[(1S,2S)-2-([4-[(4-methylpiperazin-1-yl)methyl]-[1,1-biphenyl]-4-yl]methoxy)cyclopentyl]pyridine-3-carboxamide] | 20 to 50% |
| Cn1c(=O)n([C@H]2CCC(=O)NC2=O)c2ccc(CCCCN3CCC(N4CCN(Cc5ccc(-c6cn([C@H]7CC[C@H](O)CC7)c7nc(NCCC(F)(F)F)ncc67)cc5)CC4)CC3)cc21 [I-120, 3-[3-methyl-2-oxo-5-[4-(4-[4-[(4-[7-[trans-4-hydroxycyclohexyl]-2-[(3,3,3-trifluoropropyl)amino]-7H-pyrrolo[2,3-d]pyrimidin-5-yl]phenyl)methyl]piperazin-1-yl]piperidin-1-yl)butyl]-2,3-dihydro-1H-1,3-benzodiazol-1-yl]piperidine-2,6-dione] | > 50% |
| Cn1c(=O)n([C@H]2CCC(=O)NC2=O)c2ccc(COC3CCN(C4CCN(Cc5ccc(-c6cn([C@H]7CC[C@H](O)CC7)c7nc(NCCC(F)(F)F)ncc67)cc5)CC4)CC3)cc21 [I-157, 3-[3-methyl-2-oxo-5-[([1-[(4-[7-[trans-4-hydroxycyclohexy1]-2-[(3,3,3-trifluoropropyl)amino]pyrrolo[2,3-d]pyrimidin-5-yl]phenyl)methyl]-[1,4-bipiperidin]-4-yl]oxy)methyl]-1,3-benzodiazol-1-y1]piperidine-2,6-dione; formic acid] | > 50% |
| Cn1c(=O)n([C@H]2CCC(=O)NC2=O)c2ccc(CCCN3CC(N4CCN(Cc5ccc(-c6cn([C@H]7CC[C@H](O)CC7)c7nc(NCCC(F)(F)F)ncc67)cc5)CC4)C3)cc21 [I-116, 3-[3-methyl-2-oxo-5-[3-(3-[4-[(4-[7-[trans-4-hydroxycyclohexyl]-2-[(3,3,3-trifluoropropyl)amino]-7H-pyrrolo[2,3-d]pyrimidin-5-yl]phenyl)methyl]piperazin-1-yl]azetidin-1-y1)propyl]-2,3-dihydro-1H-1,3-benzodiazol-1-yl]piperidine-2,6-dione] | > 50% |
| Cn1c(=O)n([C@H]2CCC(=O)NC2=O)c2ccc(CCOCCN3CCN(Cc4cn([C@H]5CC[C@H](O)CC5)c5nc(NCCC(F)(F)F)ncc45)CC3)cc21 [I-147, 3-[3-methyl-2-oxo-5-(2-[2-[4-([7-[(1r,4r)-4-hydroxycyclohexyl]-2-[(3,3,3-trifluoropropyl)amino]pyrrolo[2,3-d]pyrimidin-5-y1]methyl)piperazin-1-yl]ethoxy]ethyl)-1,3-benzodiazol-1-yl]piperidine-2,6-dione] | < 20% |
| O=C(c1ccc(CNCc2ccc(-c3ccc4c(cnn4CC4CC4)c3)cc2)cc1)N1CC(C2CCN(Cc3ccc(-c4cn([C@H]5CC[C@H](O)CC5)c5nc(NCCC(F)(F)F)ncc45)cc3)CC2)C1 [I-181, trans-4-[5-[4-([4-[1-(4-[[([4-[1-(Cyclopropylmethyl)indazol-5-yl]phenyl]methyl)amino]methyl]benzoyl)azetidin-3-yl]piperidin-1-yl]methyl)phenyl]-2-[(3,3,3-trifluoropropyl)amino]pyrrolo[2,3-d]pyrimidin-7-yl]cyclohexan-1-ol] | < 20% |
| Cn1c(=O)n([C@H]2CCC(=O)NC2=O)c2ccc(CCOCCN3CCN(Cc4cccc(-c5cn([C@H]6CC[C@H](O)CC6)c6nc(NCCC(F)(F)F)ncc56)c4)CC3)cc21 [I-146, 3-[3-methyl-2-oxo-5-[2-(2-[4-[(3-[7-[trans-4-hydroxycyclohexy1]-2-[(3,3,3-trifluoropropyl)amino]pyrrolo[2,3-d]pyrimidin-5-yl]phenyl)methyl]piperazin-1-yl]ethoxy)ethyl]-1,3-benzodiazol-1-yl]piperidine-2,6-dione] | > 50% |
| Cc1ncsc1-c1ccc(CNC(=O)[C@@H]2C[C@@H](O)CN2C(=O)[C@@H](NC(=O)COCCOCCOCCN2CCN(Cc3ccc(-c4cn([C@H]5CC[C@H](O)CC5)c5nc(NCCC(F)(F)F)ncc45)cc3)CC2)C(C)(C)C)cc1 [I-166, (2S,4R)-1-[(2S)-3,3-dimethyl-2-(2-[2-[2-(2-[4-[(4-[7-[trans-4-hydroxycyclohexyl]-2-[(3,3,3-trifluoropropyl)amino]pyrrolo[2,3-d]pyrimidin-5-yl]phenyl)methyl]piperazin-1-yl]ethoxy)ethoxy]ethoxy]acetamido)butanoyl]-4-hydroxy-N-[[4-(4-methyl-1,3-thiazol-5-yl)phenyl]methyl]pyrrolidine-2-carboxamide] | > 50% |
| Cc1ncsc1-c1ccc(CNC(=O)[C@@H]2C[C@@H](O)CN2C(=O)[C@@H](NC(=O)CCCCCCN2CCN(Cc3ccc(-c4cn([C@H]5CC[C@H](O)CC5)c5nc(NCCC(F)(F)F)ncc45)cc3)CC2)C(C)(C)C)cc1 [I-162, (2S,4R)-1-[(2S)-3,3-dimethyl-2-(7-[4-[(4-[7-[trans-4-hydroxycyclohexyl]-2-[(3,3,3-trifluoropropyl)amino]pyrrolo[2,3-d]pyrimidin-5-yl]phenyl)methyl]piperazin-1-yl]heptanamido)butanoyl]-4-hydroxy-N-[[4-(4-methyl-1,3-thiazol-5-yl)phenyl]methyl]pyrrolidine-2-carboxamide] | < 20% |
| Cn1c(=O)n([C@H]2CCC(=O)NC2=O)c2ccc(COCCN3CCN(Cc4ccc(-c5cn([C@H]6CC[C@H](O)CC6)c6nc(NCCC(F)(F)F)ncc56)cc4)CC3)cc21 [I-151, trans-3-[3-methyl-2-oxo-5-[(2-[4-[(4-[7-[4-hydroxycyclohexy1]-2-[(3,3,3-trifluoropropyl)amino]pyrrolo[2,3-d]pyrimidin-5-y1]phenyl)methyl]piperazin-1-yl]ethoxy)methyl]-1,3-benzodiazol-1-yl]piperidine-2,6-dione; formic acid] | > 50% |
| COc1ccc(Nc2nc(Nc3cc(OCCOCCOCCOCCOCC(=O)N[C@H](C(=O)N4C[C@H](O)C[C@H]4C(=O)NCc4ccc(-c5scnc5C)cc4)C(C)(C)C)c(OC)cc3C)ncc2Cl)c(NS(C)(=O)=O)c1 [I-228] | 20 to 50% |
| N[C@H]1CCCC[C@H]1Nc1cc2nc[nH]c(=O)c2c(Nc2cccc3c2ccn3CCOCCOCCOCCOCCNc2cccc3c2C(=O)N(C2CCC(=O)NC2=O)C3=O)n1 (stereo partly shown) [I-227] | > 50% |
| Cn1c(=O)n([C@H]2CCC(=O)NC2=O)c2ccc(CN3CC(OCCN4CCN(Cc5ccc(-c6cn([C@H]7CC[C@H](O)CC7)c7nc(NCCC(F)(F)F)ncc67)cc5)CC4)C3)cc21 [I-109, 3-(3-methyl-2-oxo-5-[[3-(2-[4-[(4-[7-[trans-4-hydroxycyclohexyl]-2-[(3,3,3-trifluoropropyl)amino]-7H-pyrrolo[2,3-d]pyrimidin-5-y1]phenyl)methyl]piperazin-1-yl]ethoxy)azetidin-1-yl]methyl]-2,3-dihydro-1H-1,3-benzodiazol-1-y1)piperidine-2,6-dione] | < 20% |
